Data set [1] in a line: Selectivity ratio of IC50 for antiproliferative activity against MTAP wild type human HCT-116 cells to IC50 for antiproliferative activity against MTAP deleted human HCT-116 cells. The class given is functional.
A short description of data set [2]: Oral bioavailability in male CD-1 mouse at 5 mg/kg or 1 mg/kg, iv measured upto 24 hrs. The data set is classed as ADME, organism-based. Conditions: in vivo.
Data set [3] in a line: Oral bioavailability in male Sprague-Dawley rat at 5 mg/kg or 1 mg/kg, iv measured upto 24 hrs. Particulars: in vivo. The class given is ADME, organism-based.
In data set [4] the test system is HCT-116. Kind of data set: Antiproliferative activity against MTAP deleted human HCT-116 cells assessed as inhibition of cell viability by luminescence based cell titer-glo assay. The class given is functional. Background: Cellular ATP, detected with luciferase, serves as a proxy for viable cell number.
Data set [5] in a line: Volume of distribution at steady state in male Sprague-Dawley rat at 5 mg/kg, po or 1 mg/kg, iv measured upto 24 hrs. The data set is classed as ADME, organism-based. Conditions: in vivo.
Data set [6] in a line: Volume of distribution at steady state in male CD-1 mouse at 5 mg/kg, po or 1 mg/kg, iv measured upto 24 hrs. The data set is classed as ADME, organism-based. Conditions: in vivo.
Data set [7] deals with HCT-116. Nature of the data set: Antiproliferative activity against MTAP wild type human HCT-116 cells assessed as inhibition of cell viability by luminescence based cell titer-glo assay. The class given is functional.
The nature of data set [8]: AUC (0 to 24 hrs) in male CD-1 mouse at 5 mg/kg, po or 1 mg/kg, iv measured upto 24 hrs. The class given is ADME, organism-based. Particulars: in vivo.
Data set [9] is described as follows: Cmax in male CD-1 mouse at 5 mg/kg, po or 1 mg/kg, iv measured upto 24 hrs. Particulars: in vivo. The class given is ADME, organism-based.
Data set [10] in a line: Cmax in male Sprague-Dawley rat at 5 mg/kg, po or 1 mg/kg, iv measured upto 24 hrs. The class given is ADME, organism-based. Conditions: in vivo.
The nature of data set [11]: AUC (0 to 24 hrs) in male Sprague-Dawley rat at 5 mg/kg, po or 1 mg/kg, iv measured upto 24 hrs. The class given is ADME, organism-based. Particulars: in vivo.

SMILES strings stand for the structures.

Take `Cn1ncc(-c2ccc3c(=O)[nH]nc(CN)c3c2)c1-c1c(F)c(Cl)cc(OC2CC2)c1C#N`: in [1], the “Ratio IC50” value was 73.
For the molecule `Cc1cc2nc(N)c3c(c2cc1C(=O)N(C)[C@@H]1CCN(c2ccc(C#N)cc2)C1)COC3`, the “Ratio IC50” value in data set [1] turned out to be 169. Further, the bioavailability in [2] is 83.1%; in [3], 46.1%. Moreover, the IC50 with HCT-116 [4] worked out at 7 nM; with HCT-116 [7], 1180 nM. Also, the figures for the Vdss in data set [5] and in data set [6] were 1.29 L/kg and 2.84 L/kg, respectively. For the same molecule, the AUC in data set [8] came out at 1720 ng·h/mL; in data set [11] it was 2310 ng·h/mL. Besides, the Cmax was 611 ng/mL in [9] and 496 ng/mL in data set [10].
`CN(C(=O)c1ccc2nc(N)c3c(c2c1)COC3)C1CN(c2ccccc2)C1`: the IC50 in the data set with HCT-116 [4] was determined as 1590 nM.
For `CN(C(=O)c1ccc2nc(N)c3c(c2c1)COC3)[C@@H]1CCN(c2ccc(C3CC3)cc2)C1`, in the data set with HCT-116 [4], the IC50 is 1570 nM.
For the molecule `CN(C(=O)c1ccc2nc(N)c3c(c2c1)COC3)[C@@H]1CCN(c2ccc(C(F)(F)F)cc2)C1`, the figures for the IC50 in the data set on HCT-116 [4] and in the data set on HCT-116 [7] were 1090 nM and above 10000 nM, respectively.
Turning to `Nc1nc2ccc(C(=O)N3C[C@@H]4C[C@H]3CN4c3ccccc3)cc2c2c1COC2`, the 50% inhibitory concentration (IC50) in the data set with HCT-116 [4] stood at 719 nM.
In the case of `CN(C(=O)c1ccc2nc(N)c3c(c2c1)COC3)[C@@H]1CCN(c2ccc(-c3cnn(C)c3)cc2)C1`, the half-inhibitory concentration (IC50) in the data set with HCT-116 [4] is 211 nM; with HCT-116 [7], above 10000 nM.
The matching figures for `CN(C(=O)c1ccc2nc(N)c3c(c2c1)COC3)[C@@H]1CCN(c2ccc(C3=CCOCC3)cc2)C1`: 451 nM and above 10000 nM.
On to `CN(C(=O)c1ccc2nc(N)c3c(c2c1)COC3)C1CCN(c2ccccc2)CC1`, for which the half-maximal inhibitory concentration (IC50) in the data set on HCT-116 [4] came out at 3890 nM.
With `N#Cc1cccc(N2C[C@@H]3C[C@H]2CN3C(=O)c2ccc3nc(N)c4c(c3c2)COC4)c1`, in the data set on HCT-116 [4], the IC50 was 3680 nM.
`CN(C(=O)c1cc2c3c(c(N)nc2cn1)COC3)[C@@H]1CCN(c2ccc(C#N)cc2)C1`: the IC50 is 137 nM with HCT-116 [4] and 9350 nM in the data set with HCT-116 [7].
In the case of `CN(C(=O)c1ccc2nc(N)c3c(c2c1)COC3)[C@@H]1CCN(c2ccc(S(C)(=O)=O)cc2)C1`, the results for the 50% inhibitory concentration (IC50) with HCT-116 [4] and with HCT-116 [7] were 641 nM and above 10000 nM, respectively.
As to `Nc1nc2ccc(C(=O)N3C[C@H]4C[C@@H]3CN4c3ccccc3)cc2c2c1COC2`, in the data set with HCT-116 [4], the IC50 amounted to 2450 nM.

By bioavailability is commonly meant dose-corrected exposure relative to a reference, in per cent. Broadly, the IC50 is the concentration that inhibits the measured activity by half. One may read the AUC as the area under the concentration-time curve, a measure of exposure. For orientation: Cmax means the peak of the concentration-time curve.

Source of the values: ChEMBL document CHEMBL6087483 (J Med Chem, 2025).
